Laboratory results published in patent US6737383B1, “Herbicidal oxadiazolidines” (priority 1999, dated 2004).

Assays:
rape = assay: Test B pre/postemergence rape; type: in vivo, Brassica napus
In short: (§1)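 Herbicidal effect was estimated by eye on a ten-point control scale after plants spent twelve to sixteen days in a greenhouse following soil or foliar treatment. Foliar sprays targeted plants at one to four leaves; all doses were formulated in a non-phytotoxic solvent with surfactant.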

sugar beet = assay: Test B pre/postemergence sugar beet; type: in vivo, Beta vulgaris
In short: as §1

purple nutsedge = assay: Test B pre/postemergence purple nutsedge; type: in vivo, Cyperus rotundus
In short: as §1

duck salad = assay: Test B flood test duck salad; type: in vivo, Heteranthera limosa
In short: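 Flood test on plants grown to the 2-leaf stage; treated plants kept in greenhouse twelve to sixteen days, then visually rated against controls on a 0 (no effect) to 10 (complete control) scale.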

winter wheat [1] = assay: Test E winter wheat; type: in vivo, Triticum aestivum; settings: Postemergence; for Plant response rating, Wheat (winter): 0 to 100 scale
In short: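 Each compound, carried in a non-phytotoxic solvent blend including surfactant, was applied (postemergence: over the top of young plants at 1- to 4-leaf stage). Plants stayed in the greenhouse about 21 to 28 days before visual comparison with untreated controls.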

blackgrass = assay: Test E blackgrass; type: in vivo, Alopecurus myosuroides; settings: Preemergence
green foxtail = assay: Test E green foxtail; type: in vivo, Setaria viridis; settings: Preemergence
Italian ryegrass = assay: Test E Italian ryegrass; type: in vivo, Lolium multiflorum; settings: Preemergence
winter wheat [2] = assay: Test E winter wheat; type: in vivo, Triticum aestivum; settings: Preemergence
wild oat = assay: Test E wild oat; type: in vivo, Avena fatua; settings: Preemergence
winter barley = assay: Test E winter barley; type: in vivo, Hordeum vulgare; settings: Preemergence
[3] = Preemergence, Rate 62 g/ha, scale of 0 to 10 where 0 is no effect and 10 is complete control
[4] = Preemergence, Rate 250 g/ha, scale of 0 to 10 where 0 is no effect and 10 is complete control
[5] = Preemergence, Rate 500 g/ha, scale of 0 to 10 where 0 is no effect and 10 is complete control
[6] = Rate 62 g/ha, Postemergence, scale 0 to 10 (0 no effect, 10 complete control)
[7] = Rate 125 g/ha, Postemergence, scale of 0 to 10 where 0 is no effect and 10 is complete control
[8] = Rate 250 g/ha, Postemergence, scale of 0 to 10 where 0 is no effect and 10 is complete control
[9] = Rate 62 g/ha, headed Pre-emergence (flood test species), scale 0 to 10 (0 no effect, 10 complete control)
[10] = Rate 125 g/ha, Pre-emergence, flood test species, scale 0 to 10 where 0 is no effect and 10 is complete control
[11] = Rate 250 g/ha, Pre-emergence, flood-test species, scale 0 to 10, 0 is no effect, 10 is complete control
[12] = Rate 500 g/ha, Pre-emergence, flood test species, scale 0 to 10 (0 no effect, 10 complete control)
[13] = Rate 125 g/ha, 0 is no effect, 100 is complete control
[14] = Rate 62 g/ha, 0 to 100 scale, 0 no effect, 100 complete control
[15] = Rate 125 g/ha, 0 to 100 scale (0 no effect, 100 complete control)
[16] = Preemergence, Rate 31 g/ha, visual rating, scale 0 to 10 (0 no effect, 10 complete control)
[17] = Rate 31 g/ha, Postemergence, scale 0 to 10
[18] = Rate 62 g/ha, Postemergence, scale of 0 to 10 where 0 is no effect and 10 is complete control
[19] = Rate 125 g/ha, Postemergence, scale 0 to 10
[20] = Rate 125 g/ha, Preemergence, scale of 0 to 10 where 0 is no effect and 10 is complete control
[21] = Rate 500 g/ha, Postemergence, scale 0 to 10, 0 no effect, 10 complete control
[22] = Rate 31 g/ha, 0 to 100 scale, 0 no effect, 100 complete control

## CC(C)N(C(=O)n1oc(=O)n(C2CCOCC2)c1=O)c1ccc(F)cc1 [Compound 310]
rape; [3]
  Rape plant response rating: 5
rape; Preemergence, Rate 125 g/ha
  Rape plant response rating (0 to 10 scale): 6
rape; [4]
  Rape plant response rating: 10
rape; [5]
  Rape plant response rating: 10
rape; [6]
  Rape plant response rating: 0
rape; [7]
  Rape plant response rating: 0
rape; [8]
  Plant response rating, Rape: 0
Sugar beet; [3]
  Sugarbeets plant response rating: 5
Sugar beet; Preemergence, Rate 125 g/ha
  Sugarbeets plant response rating (0 to 10 scale): 7
Sugar beet; [4]
  Sugarbeets plant response rating: 10
Sugar beet; [5]
  Sugarbeets plant response rating: 10
Sugar beet; [6]
  Sugarbeets plant response rating: 0
Sugar beet; [7]
  Sugarbeets plant response rating: 0
Sugar beet; [8]
  Plant response rating, Sugarbeets: 2
Purple nutsedge; [3]
  Nutsedge plant response rating: 0
Purple nutsedge; Preemergence, Rate 125 g/ha
  Nutsedge plant response rating (0 to 10 scale): 0
Purple nutsedge; [4]
  Nutsedge plant response rating: 10
Purple nutsedge; [5]
  Nutsedge plant response rating: 10
Purple nutsedge; [6]
  Nutsedge plant response rating: 2
Purple nutsedge; [7]
  Nutsedge plant response rating: 3
Purple nutsedge; [8]
  Plant response rating, Nutsedge: 6
Duck salad; Pre-emergence, Rate 1000 g/ha, scale 0 to 10 (0 no effect, 10 complete control)
  Ducksalad plant response rating: 0
Duck salad; [9]
  Ducksalad plant response rating: 0
Duck salad; [10]
  Ducksalad plant response rating: 0
Duck salad; [11]
  Ducksalad plant response rating: 0
Duck salad; [12]
  Ducksalad plant response rating: 3
Winter wheat [1]; Rate 62 g/ha
  Plant response rating, Wheat (winter): 75
Winter wheat [1]; [13]
  Plant response rating, Wheat (winter): 80
Winter wheat [1]; Rate 250 g/ha, 0 is no effect, 100 is complete control
  Plant response rating, Wheat (winter): 80
blackgrass; [14]
  Plant response rating, Blackgrass: 85
blackgrass; [15]
  Plant response rating, Blackgrass: 85
blackgrass; Rate 250 g/ha, 0 to 100 scale
  Plant response rating, Blackgrass: 85
Green foxtail; [14]
  Plant response rating, Green foxtail: 100
Green foxtail; [15]
  Plant response rating, Green foxtail: 100
Green foxtail; Rate 250 g/ha, 0 to 100 scale
  Plant response rating, Green foxtail: 100
Italian ryegrass; [14]
  Plant response rating, I. Ryegrass: 70
Italian ryegrass; [15]
  Plant response rating, I. Ryegrass: 70
Italian ryegrass; Rate 250 g/ha, 0 to 100 scale
  Plant response rating, I. Ryegrass: 70
Winter wheat [2]; [14]
  Plant response rating, Wheat (winter): 60
Winter wheat [2]; [15]
  Plant response rating, Wheat (winter): 40
Winter wheat [2]; Rate 250 g/ha, 0 to 100 scale
  Plant response rating, Wheat (winter): 70
Wild oat; [14]
  Plant response rating, Wild oat: 70
Wild oat; [15]
  Plant response rating, Wild oat: 50
Wild oat; Rate 250 g/ha, 0 to 100 scale
  Plant response rating, Wild oat: 70
Winter barley; [14]
  Plant response rating, Barley (winter): 50
Winter barley; [15]
  Plant response rating, Barley (winter): 60
Winter barley; Rate 250 g/ha, 0 to 100 scale, 0 no effect, 100 complete control
  Plant response rating, Barley (winter): 70

## CC(C)N(C(=O)n1oc(=O)n(N(C)C)c1=O)c1ccccc1 [Compound 225]
rape; [16]
  Rape plant response rating: 0
rape; [3]
  Rape plant response rating: 0
rape; [4]
  Rape plant response rating: 0
rape; [5]
  Plant response rating, Rape: 6
rape; [17]
  Rape plant response rating: 0
rape; [18]
  Rape plant response rating: 0
rape; [19]
  Rape plant response rating: 0
rape; [20]
  Rape plant response rating: 0
rape; Rate 250 g/ha, Postemergence
  Plant response rating (0 to 10; 0 is no effect, 10 is complete control), Rape: 0
rape; [21]
  Rape plant response rating: 2
Sugar beet; [16]
  Sugarbeets plant response rating: 0
Sugar beet; [3]
  Sugarbeets plant response rating: 0
Sugar beet; [4]
  Sugarbeets plant response rating: 5
Sugar beet; [5]
  Plant response rating, Sugarbeets: 6
Sugar beet; [18]
  Sugarbeets plant response rating: 0
Sugar beet; [19]
  Sugarbeets plant response rating: 0
Sugar beet; [20]
  Sugarbeets plant response rating: 2
Sugar beet; Rate 250 g/ha, Postemergence
  Plant response rating (0 to 10; 0 is no effect, 10 is complete control), Sugarbeets: 3
Sugar beet; [21]
  Sugarbeets plant response rating: 2
Purple nutsedge; [16]
  Nutsedge plant response rating: 0
Purple nutsedge; [3]
  Nutsedge plant response rating: 7
Purple nutsedge; [4]
  Nutsedge plant response rating: 8
Purple nutsedge; [5]
  Plant response rating, Nutsedge: 10
Purple nutsedge; [17]
  Nutsedge plant response rating: 0
Purple nutsedge; [18]
  Nutsedge plant response rating: 0
Purple nutsedge; [19]
  Nutsedge plant response rating: 0
Purple nutsedge; [20]
  Nutsedge plant response rating: 7
Purple nutsedge; Rate 250 g/ha, Postemergence
  Plant response rating (0 to 10; 0 is no effect, 10 is complete control), Nutsedge: 0
Purple nutsedge; [21]
  Nutsedge plant response rating: 2
Duck salad; [9]
  Ducksalad plant response rating: 0
Duck salad; [10]
  Ducksalad plant response rating: 0
Duck salad; [11]
  Ducksalad plant response rating: 0
Duck salad; [12]
  Ducksalad plant response rating: 0
Winter wheat [1]; Rate 31 g/ha, 0 no effect, 100 complete control
  Plant response rating, Wheat (winter): 50
Winter wheat [1]; Rate 62 g/ha
  Plant response rating, Wheat (winter): 60
Winter wheat [1]; [13]
  Plant response rating, Wheat (winter): 75
Winter wheat [1]; Rate 250 g/ha, 0 to 100 scale where 0 is no effect and 100 is complete control
  Wheat (winter) plant response rating: 70
blackgrass; [22]
  Plant response rating, Blackgrass: 30
blackgrass; [14]
  Plant response rating, Blackgrass: 50
blackgrass; [15]
  Plant response rating, Blackgrass: 60
blackgrass; Rate 250 g/ha
  Blackgrass plant response rating (0 to 100 scale): 80
Green foxtail; [22]
  Plant response rating, Green foxtail: 30
Green foxtail; [14]
  Plant response rating, Green foxtail: 60
Green foxtail; [15]
  Plant response rating, Green foxtail: 50
Green foxtail; Rate 250 g/ha
  Green foxtail plant response rating (0 to 100 scale): 60
Italian ryegrass; [22]
  Plant response rating, I. Ryegrass: 20
Italian ryegrass; [14]
  Plant response rating, I. Ryegrass: 30
Italian ryegrass; [15]
  Plant response rating, I. Ryegrass: 50
Italian ryegrass; Rate 250 g/ha
  I. Ryegrass plant response rating (0 to 100 scale): 90
Winter wheat [2]; [22]
  Plant response rating, Wheat (winter): 10
Winter wheat [2]; [14]
  Plant response rating, Wheat (winter): 30
Winter wheat [2]; [15]
  Plant response rating, Wheat (winter): 65
Winter wheat [2]; Rate 250 g/ha
  Wheat (winter) plant response rating (0 to 100 scale): 70
Wild oat; [22]
  Plant response rating, Wild oat: 30
Wild oat; [14]
  Plant response rating, Wild oat: 40
Wild oat; [15]
  Plant response rating, Wild oat: 50
Wild oat; Rate 250 g/ha
  Wild oat plant response rating (0 to 100 scale): 60
Winter barley; [22]
  Plant response rating, Barley (winter): 0
Winter barley; [14]
  Plant response rating, Barley (winter): 50
Winter barley; [15]
  Plant response rating, Barley (winter): 50
Winter barley; Rate 250 g/ha
  Barley (winter) plant response rating (0 to 100 scale): 60
